The values that follow come from US20230010871A1, “COMPLEXES COMPRISING A CA[…] AND AN ACTIVE INGREDIENT AND PROCESSES FOR THEIR PREPARATION” (FOLIUM LABS INC., priority 2019, published 2023).

The series is described as follows: Oral pharmacokinetic profile of CBD and THC complexes in rats (plasma concentration by GC-MS/MS). The conditions noted are these: per os single gavage, fasted male rats.

As for `C=C(C)[C@@H]1CCC(C)=C[C@H]1c1c(O)cc(CCCCC)cc1O` [CBD, cannabidiol], where the note is “20 mg/kg CBD-based dose, plasma”, the “CBD Cmax (average)” value is reported as 12.7 ng/mL.

On to `CCCCCc1cc(O)c2c(c1)OC(C)(C)[C@@H]1CCC(C)=C[C@@H]21` [pure THC, tetrahydrocannabinol], for which the “THC average circulating levels in plasma” value (20 mg/kg THC-based dose) is recorded as “mostly below the limit of quantitation”.
